Paper PMC9495854, “Novel Phenothiazine/Donepezil-like Hybrids Endowed with Antioxidant Activity for a Multi-Target Approach to the Therapy of Alzheimer’s Disease” (Antioxidants, 2022)
Marks after values point to notes of the source that are not given here.

Key:
[1] = DPPH radical scavenging assay; settings: DPPH 100 µM in methanol, 30 min
Method: A previously reported method (Blois) with some modifications (Mishra, Ojha, & Chaudhury, 2012) was used to carry out the DPPH assay in 96-well microtiter plates. Each tested compound was dissolved in methanol, after which a freshly prepared solution of DPPH in methanol (100 µM final concentration) was added. Following vigorous stirring, each mixture was left in the dark for 30 min at room temperature, after which absorbance values for each well were read at 520 nm using a spectrophotometric plate reader (VICTOR^3 V multilabel plate reader, PerkinElmer). Antioxidant activity was determined as RSA% (radical scavenging activity). The value was calculated using following equation: RSA% = 100 × [(Ao − Ai)/Ao], where Ao and Ai represent DPPH absorbance in absence or in presence of antioxidant, respectively. Antiradical curves for calculating the EC50 values were obtained by testing each compound at several concentrations. Values of all parameters are expressed as mean ± SEM of at least three independent measurements in triplicate.

[2] = MTT cell viability assay, HepG2; format: cell-based; settings: human, HepG2 cells; for IC50 at 1 h: HepG2, 1 h exposure; for IC50 at 24 h: HepG2, 24 h exposure, read-out: MTT cytotoxicity IC50 ± SEM HepG2 24 h
Method: Human hepatocellular liver carcinoma (HepG2) cell line and human neuroblastoma cell line, SH-SY5Y, were purchased from the American Type Culture Collection (ATCC, Manassas, VA, USA) and maintained at 37 °C in a humidified atmosphere (95% air and 5% carbon dioxide), and they were periodically screened for contamination. HepG2 cells were cultured in Eagle’s Minimum Essential Medium (MEM, Euroclone S.p.A., Pero, MI, Italy), supplemented with 10% Fetal Bovine Serum (FBS, Euroclone S.p.A., Pero, MI, Italy), 1% L-glutamine (Euroclone S.p.A., Pero, MI, Italy), 100 U/mL penicillin/streptomycin (Euroclone S.p.A., Pero, MI, Italy), 1% Non-Essential Amino Acids (NEAA, Euroclone S.p.A., Pero, MI, Italy). SH-SY5Y cells were grown in a 1:1 mixture of Dulbecco’s modified Eagle’s medium (DMEM)—high glucose (Euroclone S.p.A., Pero, MI, Italy) and Ham’s F12 Medium (Euroclone S.p.A., Pero, MI, Italy) supplemented with 10% FBS, 1% L-glutamine and 100 U/mL penicillin/streptomycin. For cell assays, cells were trypsinized using Trypsin-EDTA 1X in PBS (Euroclone S.p.A., Pero, MI, Italy).
HepG2 and SH-SY5Y cell viability was assessed as previously reported by using a conventional 3-(4,5-dimethylthiazol-2-yl)-2,5-diphenyltetrazolium bromide (MTT) assay. In brief, viable cells were seeded and grown for 24 h into a sterile 96-well cell culture cluster (Corning, Sigma-Aldrich, St. Louis, MO, USA) in a complete medium and maintained at 37 °C in a humidified atmosphere with 5% CO2. The cells were then added with different concentrations of each compound for a period of 1 h or 24 h. At the end, the culture medium was replaced by a solution of 0.5 mg/mL MTT (Sigma-Aldrich, St. Louis, MO, USA) in PBS. After 2 h of incubation at 37 °C in 5% CO2, the supernatant was carefully removed from each well, and the formazan crystals were dissolved in DMSO. The absorbance values were measured at 570 nm using Tecan Infinite M1000 Pro (Tecan, Cernusco S.N., Italy) and DMSO medium as blank solution. The results were reported as % cell viability = [optical density (OD) of tested compound/medium OD of control cells] × 100. The results are expressed as mean ± SEM of at least three independent measurements in triplicate.

Aβ1-40 aggregation = molecular target: T1, Aβ1-40 aggregation (Homo sapiens, UniProt P05067); assay: Inhibition of Aβ40 aggregation, ThT fluorescence; format: biochemical; settings: inhibitor 10 µM, Aβ40 30 µM, PBS pH 7.4, 2% HFIP, 2 h 25 °C, mean ± SEM; for inhibition at 10 µM: read-out: Aβ1-40 Aggregation (I% at 10 µM)
T1 construct: purchased EZBiolab
Method: ThT fluorescence in the presence of Aβ was measured for each compound according a previously described procedure. The samples were co-incubated and mixed in 96-well black, non-binding microplates (Greiner Bio-One GmbH, Frickenhausen, Germany), incubating Aβ40 (EZBiolab, Carmel, IN, USA) at a final concentration of 30 µM with each inhibitors at a final concentration of 10 µM in PBS (pH 7.4) containing 2% 1,1,1,3,3,3-hexafluoro-2-propanol (HFIP). After 2 h at 25 °C, a 25 µM ThT solution was added and fluorescence was determined using the multi-plate reader Tecan Infinite M1000 Pro (Tecan, Cernusco S.N., Italy). The results are reported as mean of three independent experiments ± SEM [13].

hAChE = molecular target: T2, hAChE (Homo sapiens, UniProt P22303); assay: biochemical; format: biochemical; settings: mean ± SEM; for hAChE I% at 10 µM: inhibition at 10 µM
T2 construct: purchased
Method: The experiments were carried out using a properly modified version of Ellman’s spectrophotometric assay, adapted to a 96-well plate procedure. All reagents, including enzymes, were purchased from common suppliers. Incubation of the proper enzyme with the single compound at different concentrations was performed in clear flat-bottomed, 96-well plates (Greiner Bio-One GmbH, Frickenhausen, Germany) and in duplicate. […] Fluorescence measures were carried out using Tecan Infinite M1000 Pro multiplate reader (Tecan, Cernusco S.N., Italy). IC50 values and inhibition values were calculated as the mean of three independent experiments and are expressed as mean ± SEM [13].

T1 sequence (P05067 672-711 limits assumed): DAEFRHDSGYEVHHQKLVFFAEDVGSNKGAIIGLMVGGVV
T2 sequence (P22303 32-614): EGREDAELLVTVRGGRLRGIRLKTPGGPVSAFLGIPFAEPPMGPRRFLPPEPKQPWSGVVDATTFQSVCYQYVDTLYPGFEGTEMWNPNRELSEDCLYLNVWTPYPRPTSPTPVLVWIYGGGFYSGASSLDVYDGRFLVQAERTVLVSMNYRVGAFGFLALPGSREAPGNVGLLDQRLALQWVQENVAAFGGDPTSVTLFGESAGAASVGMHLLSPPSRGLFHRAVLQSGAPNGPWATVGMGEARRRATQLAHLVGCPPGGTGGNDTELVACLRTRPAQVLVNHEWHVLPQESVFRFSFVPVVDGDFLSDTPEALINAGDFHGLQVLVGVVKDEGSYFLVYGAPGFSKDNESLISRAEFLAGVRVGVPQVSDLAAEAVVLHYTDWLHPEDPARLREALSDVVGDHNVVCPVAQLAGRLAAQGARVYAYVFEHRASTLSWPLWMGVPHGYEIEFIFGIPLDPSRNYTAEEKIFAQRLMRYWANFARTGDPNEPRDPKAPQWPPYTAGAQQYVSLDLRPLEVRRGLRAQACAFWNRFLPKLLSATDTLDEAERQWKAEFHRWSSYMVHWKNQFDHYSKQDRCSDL

O=C(NCCN1CCN(Cc2ccccc2F)CC1)c1ccc2c(c1)Nc1ccccc1S2 [Compound 12d, N-(2-(4-(2-Fluorobenzyl)piperazin-1-yl)ethyl)-10H-phenothiazine-2-carboxamide]
EC50 (μmol/μmol of DPPH ± SEM) [1]: 0.231 ± 0.026 μmol/μmol of DPPH | IC50 at 1 h [2]: > 100 µM | IC50 at 24 h [2]: 42.9 ± 1.81 µM | inhibition at 10 µM (Aβ1-40 aggregation): 60% | IC50 (hAChE): 0.599 ± 0.112 µM

O=C(NCC1CCN(Cc2ccccc2)CC1)c1ccc2c(c1)Nc1ccccc1S2 [Compound 11a, N-((1-Benzylpiperidin-4-yl)methyl)-10H-phenothiazine-2-carboxamide]
EC50 (μmol/μmol of DPPH ± SEM) [1]: 0.082 ± 0.007 μmol/μmol of DPPH | IC50 at 1 h [2]: > 100 µM | IC50 at 24 h [2]: 62.7 ± 0.7 µM | inhibition at 10 µM (Aβ1-40 aggregation): 8% | IC50 (hAChE): 0.597 ± 0.064 µM

CC(=O)N1c2ccccc2Sc2ccc(C(=O)NCCN3CCN(Cc4ccccc4Cl)CC3)cc21 [Compound 13, 10-Acetyl-N-(2-(4-(2-chlorobenzyl)piperazin-1-yl)ethyl)-10H-phenothiazine-2-carboxamide]
IC50 at 1 h [2]: > 100 µM | IC50 at 24 h [2]: > 100 µM | Aβ1-40 Aggregation (I% at 10 µM) (Aβ1-40 aggregation): lack of activity | hAChE I% at 10 µM (hAChE): 48% ± 5 ^b

Cc1ccccc1CN1CCC(CNC(=O)c2ccc3c(c2)Nc2ccccc2S3)CC1 [Compound 11c, N-((1-(2-Methylbenzyl)piperidin-4-yl)methyl)-10H-phenothiazine-2-carboxamide]
EC50 (μmol/μmol of DPPH ± SEM) [1]: 0.117 ± 0.013 μmol/μmol of DPPH | IC50 at 1 h [2]: > 100 µM | IC50 at 24 h [2]: 35.2 ± 1.1 µM | inhibition at 10 µM (Aβ1-40 aggregation): 47% | hAChE I% at 10 µM (hAChE): 44% ± 2 ^b

O=C(NCCN1CCN(Cc2ccccc2)CC1)c1ccc2c(c1)Nc1ccccc1S2 [Compound 12a, N-(2-(4-Benzylpiperazin-1-yl)ethyl)-10H-phenothiazine-2-carboxamide]
EC50 (μmol/μmol of DPPH ± SEM) [1]: 0.182 ± 0.016 μmol/μmol of DPPH | IC50 at 1 h [2]: > 100 µM | IC50 at 24 h [2]: 28.8 ± 0.42 µM | inhibition at 10 µM (Aβ1-40 aggregation): 43% | IC50 (hAChE): 0.943 ± 0.046 µM

O=C(NCCN1CCN(Cc2ccccc2Cl)CC1)c1ccc2c(c1)Nc1ccccc1S2 [Compound 12b, N-(2-(4-(2-Chlorobenzyl)piperazin-1-yl)ethyl)-10H-phenothiazine-2-carboxamide]
EC50 (μmol/μmol of DPPH ± SEM) [1]: 0.122 ± 0.011 μmol/μmol of DPPH | IC50 at 1 h [2]: > 100 µM | IC50 at 24 h [2]: > 100 µM | inhibition at 10 µM (Aβ1-40 aggregation): 27% | IC50 (hAChE): 1.85 ± 0.15 µM

O=C(NCC1CCN(Cc2ccccc2Cl)CC1)c1ccc2c(c1)Nc1ccccc1S2 [Compound 11b, N-((1-(2-Chlorobenzyl)piperidin-4-yl)methyl)-10H-phenothiazine-2-carboxamide]
EC50 (μmol/μmol of DPPH ± SEM) [1]: 0.139 ± 0.014 μmol/μmol of DPPH | IC50 at 1 h [2]: > 100 µM | IC50 at 24 h [2]: 27.7 ± 0.4 µM | inhibition at 10 µM (Aβ1-40 aggregation): 20% | hAChE I% at 10 µM (hAChE): 52% ± 1 ^b

Cc1ccccc1CN1CCN(CCNC(=O)c2ccc3c(c2)Nc2ccccc2S3)CC1 [Compound 12c, N-(2-(4-(2-Methylbenzyl)piperazin-1-yl)ethyl)-10H-phenothiazine-2-carboxamide]
EC50 (μmol/μmol of DPPH ± SEM) [1]: 0.145 ± 0.010 μmol/μmol of DPPH | IC50 at 1 h [2]: > 100 µM | IC50 at 24 h [2]: > 100 µM | hAChE I% at 10 µM (hAChE): 56% ± 3 ^b

COc1cccc(CN2CCC(CNC(=O)c3ccc4c(c3)Nc3ccccc3S4)CC2)c1 [Compound 11e, N-((1-(3-Methoxybenzyl)piperidin-4-yl)methyl)-10H-phenothiazine-2-carboxamide]
EC50 (μmol/μmol of DPPH ± SEM) [1]: 0.104 ± 0.011 μmol/μmol of DPPH | IC50 at 1 h [2]: > 100 µM | IC50 at 24 h [2]: 14.9 ± 0.61 µM | inhibition at 10 µM (Aβ1-40 aggregation): 24% | hAChE I% at 10 µM (hAChE): 22% ± 4 ^b

O=C(NCC1CCN(Cc2ccccc2F)CC1)c1ccc2c(c1)Nc1ccccc1S2 [Compound 11d, N-((1-(2-Fluorobenzyl)piperidin-4-yl)methyl)-10H-phenothiazine-2-carboxamide]
EC50 (μmol/μmol of DPPH ± SEM) [1]: 0.126 ± 0.014 μmol/μmol of DPPH | IC50 at 1 h [2]: > 100 µM | IC50 at 24 h [2]: 41 ± 0.2 µM | inhibition at 10 µM (Aβ1-40 aggregation): 43% | IC50 (hAChE): 1.75 ± 0.11 µM
